# Data reported in patent publication EP2954896A1, “Small molecule inhibitors of the E3 Ligase Skp2 in depression and other diseases” (Max-Planck-Gesellschaft zur Förderung der Wissenschaften …, priority 2014, dated 2015).
# How the values were obtained:
# [1] = test system: primary rat cortical astrocytes; test: MTT cytotoxicity assay in primary rat cortical astrocytes; assay type: cell-based
# Protocol: (§1) Enriched astroglial cultures were prepared from postnatal day 1 rat pups (Sprague-Dawley, Charles River, Sulzfeld, Germany) and handled as described by Attwood BK et al. (2011) Nature 473: 372-375 and Hartmann J et al. (2012) Neuropharmacology 62: 332-339.
# In an effort to find a small molecule to inhibit the E3 ligase Skp2 three promising candidates of published chemical genetic screens were tested on cellular toxicity and its potency to stabilise Beclin1. Cytotoxicity was determined by an MTT assay performed in HEK 293 cell and in primary rat cortical astrocytes. Effects of small compounds on Beclin1 and p27 protein levels were determined by Western analysis of HEK 293 primary rat cortical astrocytic lysates (see Fig. 6).
# Beclin1 [2] = test: Western analysis of Beclin1 and p27 protein levels in HEK 293 and astrocytic lysates; assay type: cell-based; details: HEK 293 and primary rat cortical astrocytic lysates
# Protocol: (§2) Western blot analysis was performed on eluates from ColPs or with protein extracts from cells or tissue. Protein extracts were obtained by lysing cells or tissue (prelysed as described in the paragraph before) in 62.5 mM Tris, 2% SDS and 10% sucrose, supplemented with protease (Sigma, P2714) and phosphatase (Roche, 04906837001) inhibitor cocktail. Samples were sonicated and heated at 95 °C for 5 min. Proteins were separated by SDS-PAGE and electro-transferred onto nitrocellulose membranes. Blots were placed in Tris-buffered saline, supplemented with 0.05% Tween (Sigma, P2287) and 5% non-fat milk for 1 h at room temperature and then incubated with primary antibody (diluted in TBS/0.05% Tween) overnight at 4 °C. […]
# Beclin1 [3] = test: Western analysis of Beclin1 protein level in primary rat cortical astrocytes; assay type: cell-based
# Protocol: as §2
# Beclin1 [4] = test: Protein levels in brain extracts (hippocampus, prefrontal cortex) of SMIP004-treated mice; assay type: in vivo, C57BL/6 mice; details: various cell types; brain lysates of animals treated with SMIP004 (0.5 or 5 mgkg-1)
# Protocol: as §2
# Furthermore the neuronal activity in CA1 hippocampus was measured after treatment with SMIP004 (Figure 7). […] And protein levels were determined in extracts of the hippocampus and the prefrontal cortex.
# CA1 neuronal activity = test: Voltage-sensitive dye imaging (VSDI) of evoked CA1 neuronal activity in brain slices; details: 10 µM SMIP004, 1 h after wash in; slices from C57BL/6 mice
# Description: Brain slices were obtained from 11-18 week-old male FKBP51+/+ and FKBP51-/- litter mates (Fig. 1) or from BL6 mice (Fig. 7). […] Four acquisitions subsequently recorded at intervals of 5 s were averaged. Neuronal activity was evoked by square pulse electrical stimuli (200 µs pulse width) delivered via a custom-made monopolar tungsten electrode to the Schaffer collateral-commissural pathway. The circular ROI was placed into the CA1 stratum radiatum near the stimulation electrode. The ROI also covered a part of the adjacent CA1 stratum pyramidale (Fig. 1 B). The intensity of voltage stimulation was adjusted to produce FDSs with peak amplitudes of ~30% of the highest attainable value.
# Hippocampal CA3-CA1 synapses were electrically stimulated in brain slices from Fkbp51^+/+ and Fkbp51^-/- mice, and CA1 neuronal activity was monitored by means of voltagesensitive dye imaging (VSDI).
# Tail suspension test = assay type: in vivo; details: C57BL/6 mice; SMIP004 0.5 or 5 mgkg-1; paroxetine 10 mgkg-1 as comparator
# soluble Aβ = test: Aβ42 ELISA in Alzheimer model mice (TG2576); assay type: in vivo, TG2576 animals; details: 5mg/kg daily intraperitoneal for 3 months
# Protocol: (§3) TG2576 animals (used as Alzheimer's disease model, overexpress a mutant form of amyloid precursor protein (APP)) were chronically treated with daily intraperitoneal injections of SMIP004 (N-(4-butyl-2-methylphenyl)acetamide; 5mg/kg) or vehicle (0.9% NaCl; 1.25% DMSO) for 3 months. Brain and other tissue was analyzed for markers of autophagy and for the levels of soluble beta-amyloid (Aβ). It is commonly assumed that Aβ agglomerates are causally linked to Alzheimer's disease.
# APP-CTF = APP-CTF Western blot in brain extracts of Alzheimer model mice (TG2576); assay type: in vivo, TG2576 animals; details: 5mg/kg daily intraperitoneal for 3 months
# Protocol: (§4) For the precipitation of Beclin1 from brain tissue (Fig. 15), the tissue was first homogenized (300µL of Buffer I (50 mM Tris (pH 7.5), 150 mM NaCl, 5 mM EDTA, Protease inhibitor Mix (Sigma , P2714), Phosphatase Inhibitor (Roche, 04906837001)) followed by sonication and addition of 300µL of Buffer II (50 mM Tris (pH 7.5), 150 mM NaCl, 1% NP40, 1% Deoxycholate, 2% SDS, Protease inhibitor Mix (Sigma , P2714), Phosphatase Inhibitor (Roche, 04906837001)).
# as §2, with “membranes.” for “membranes. Blots were placed in Tris-buffered saline, supplemented with 0.05% Tween (Sigma, P2287) and 5% non-fat milk for 1 h at room temperature and then incubated with primary antibody (diluted in TBS/0.05% Tween) overnight at 4 °C.”
# as §3, with “It is commonly assumed that Aβ agglomerates are causally linked to Alzheimer's disease.” left out
# autophagy = test: Autophagy markers (Western blot, Beclin1 immunoprecipitation) in brain extracts of Alzheimer model mice (TG2576); assay type: in vivo, TG2576 animals; details: 5mg/kg daily intraperitoneal for 3 months
# Protocol: as §4
# as §2, with “membranes.” for “membranes. Blots were placed in Tris-buffered saline, supplemented with 0.05% Tween (Sigma, P2287) and 5% non-fat milk for 1 h at room temperature and then incubated with primary antibody (diluted in TBS/0.05% Tween) overnight at 4 °C.”
# as §3, with “It is commonly assumed that Aβ agglomerates are causally linked to Alzheimer's disease.” left out
# Beclin1 mRNA = Beclin1 mRNA expression by qPCR in rat cortical astrocytes; assay type: cell-based; details: 10µM for 72h; vehicle set to 1
# Protocol: as §1
# Total RNA was isolated from astroglial cells according to the manufacturer's protocol of NucleoSpin RNA II (Macherey-Nagel, Germany). In total, 300 ng of purified RNA was reverse transcribed using random primers (Promega) and Omniscript® Reverse Transcriptase (Qiagen). Based on the LightCycler® System (Roche Applied Science, Germany) and SYBR green detection (QuantiFast® SYBR Green; Qiagen), quantitative assessment of Beclin1 cDNA levels were performed. b-Actin PCR was performed serving as endogenous control for normalization. The primers used were: for Beclin1: antisense - 5'-[…]-3' sense - 5'-[…]-3'; and for β-Actin: antisense - 5'-[…]-3', sense-5'-[…]-3'. Relative changes of gene expression were calculated using the comparative ΔΔCT method (Livak and Schmittgen, METHODS 25, 402-408, 2001). Detection of viral RNA by real-time PCR was as recently described (Corman et al. (2014) Journal of Clinical Virology 60: 168-171).
# Beclin1 mRNA expression levels were determined by qPCR. HEK cells were treated either with proteasome inhibitor MG132 or with vehicle for 5h and Beclin1 protein levels were determined by Western analysis. Furthermore Co-immunoprecipitations were performed with Beclin1 antibody in HEK cell lysates with ectopic Ub-GFP.
# [5] = Forced swim test after acute antidepressant injection in Fkbp51+/+ and Fkbp51-/- mice; assay type: in vivo; details: FKBP51 WT versus FKBP51 KO mice; 10 mg kg-1 intraperitoneal
# Protocol: The Fkbp51^-/- mouse line was previously generated (Touma C et al. (2011) Biol. Psychiatry 70: 928-936) and fully backcrossed to C57/BI6. […] Hippocampus and prefrontal cortex were extracted. […] Male mice (age 10-16 weeks) were injected intraperitoneally with a single dose of either AMI (10 mg kg^-1) or saline vehicle. […] Another subgroup (WT n=5, KO n=5) was sacrificed, and brain tissue and blood was sampled for analysis of drug concentrations. […] The inventors performed an additional forced swim test administering the antidepressant amitriptyline in FKBP51 WT and FKBP51 KO mice (Fig. 1 B).
# autophagy markers = test: Autophagy markers in protein extracts of hippocampus and prefrontal cortex after acute antidepressant injection; assay type: in vivo, mice; details: FKBP51 WT versus FKBP51 KO mice; 10 mg kg-1
# Protocol: Western blot analysis was performed on eluates from ColPs or with protein extracts from cells or tissue. Protein extracts were obtained by lysing cells or tissue (prelysed as described in the paragraph before) in 62.5 mM Tris, 2% SDS and 10% sucrose, supplemented with protease (Sigma, P2714) and phosphatase (Roche, 04906837001) inhibitor cocktail. Samples were sonicated and heated at 95 °C for 5 min. Proteins were separated by SDS-PAGE and electro-transferred onto nitrocellulose membranes. Blots were placed in Tris-buffered saline, supplemented with 0.05% Tween (Sigma, P2287) and 5% non-fat milk for 1 h at room temperature and then incubated with primary antibody (diluted in TBS/0.05% Tween) overnight at 4 °C. The following primary antibodies were used: Beclin1 (1:1000, Cell Signaling, #3495), Atg12 (1:1000, Cell Signaling #2010), LC3B-I/II (1:1000, Cell Signaling, #2775), FLAG (1:7000, Rockland, 600-401-383), FKBP51 (1:1000, Bethyl, A301-430A), Akt (1:1000, Cell Signaling, #4691), pAkt (1:1000, Ser473, T308, 1:1000, Cell Signaling, #4058, #9275), Actin (1:5000, Santa Cruz Biotechnologies, sc-1616), Skp2, myc (Addgene, 19947), GFP (santa cruz biotechnologies, sc-8334), p27 (cell signaling technologies, 3686), pULK,(S757, cell signaling technologies, 6888) APP-CTF (sigma-aldrich, A8717), DNMT1 (1:1000, Imgenex, IMG-261A), phospho-DNMT1 (S154), (1:1000, Abnova, PAB4924), ptau (S622; Santa Cruz Biotechnologies, #sc-16938).
# Subsequently, blots were washed and probed with the respective horseradish peroxidase- or fluorophore-conjugated secondary antibody for 1 h at room temperature. The immuno-reactive bands were visualized either using ECL detection reagent (Millipore, Billerica, MA, USA, WBKL0500) or directly by excitation of the respective fluorophore. Determination of the band intensities were performed with BioRad, ChemiDoc MP, or X-ray-films.
# The Fkbp51^-/- mouse line was previously generated (Touma C et al. (2011) Biol. Psychiatry 70: 928-936) and fully backcrossed to C57/BI6. […] Hippocampus and prefrontal cortex were extracted.
SMILES,cytotoxic effects (MTT assay) [1],"stabilization of Beclin1 (protein level, Western analysis) (Beclin1 [2])",effect on Beclin1 protein level (Beclin1 [3]),Beclin1 stabilization confirmed in other cell types and mice brain lysates (Beclin1 [4]),"synaptic neurotransmission (CA1 FDSs, VSDI) (CA1 neuronal activity)",antidepressant-like behavior in the tail suspension test (Tail suspension test),levels of soluble Aβ in plasma and CSF (soluble Aβ),levels of APP-CTF in the brain (APP-CTF),"induction of autophagy (p27, Beclin1, Atg12, pULK S757; Beclin1 ubiquitinylation, Vps34 association) (autophagy)",Beclin1 mRNA expression level (Beclin1 mRNA),"behavioral effects, forced swim test [5]",effects on autophagy markers (autophagy markers)
"CCCCc1ccc(NC(C)=O)c(C)c1 [SMIP004, N-(4-butyl-2-methylphenyl)acetamide]",very low cytotoxic effects,potent stabilizer of Beclin1,particularly strong,confirmed in various cell types as well as in mice brain lysates,increased synaptic neurotransmission similarly to paroxetine,antidepressant-like behavior comparable to animals treated with paroxetine,reduces the levels of soluble Aβ in plasma and CSF,reduces the levels of APP-CTF in the brain,"induces autophagy, independently of the mTOR-ULK1 cascade",,,
CNCCC(Oc1ccc(C(F)(F)F)cc1)c1ccccc1 (stereo not shown) [fluoxetine],,,,,,,,,,do not change Beclin1-mRNA,,
CN(C)CCC=C1c2ccccc2CCc2ccccc21 [amitriptyline],,,,,,,,,,do not change Beclin1-mRNA,only observed in FKBP51 WT mice but not in FKBP51 KO mice,only observed in FKBP51 WT mice but not in FKBP51 KO mice
